Laboratory results published in article PMC5341858, “Molecular regulation of apoptotic machinery and lipid metabolism by mTORC1/mTORC2 dual inhibitors in preclinical models of HER2+/PIK3CAmut breast cancer” (Oncotarget, 2016).

What was measured:
Assay type in all cases: cell-based
MDA-MB-453 cells [1] = experiment: Total cellular acetyl-CoA level; details: 24 h
Experimental: (§1) Cellular glucose-to-lipid conversion was measured as described. Briefly, cells were pretreated with inhibitors for 2 h, incubated for 2 h in medium containing 2 μCi/mL D-[1-14C] glucose (PerkinElmer, NEC043X001MC). Total lipids were extracted twice with 300 μL hexane:isopropanol (3:2; vol:vol). Cell debris was carefully removed by centrifugation at 14,000 rpm for 5 min using a microcentrifuge. Radioactive lipids were dried, redissolved with 100 μL of chloroform and determined by liquid scintillation counting. A duplicate assay plate without radioactive glucose label was used to count the number of cells per treatment. Glucose to total lipid conversion rate is the radioactive counts from the extracted lipid normalized by the number of cells per hour of ^14C-glucose incubation. For acetyl-CoA assay, cells grown in 96-well plates were washed and lysed in 40 μL/well using lysis buffer. Cell lysates were transferred to V-bottom plates, cleared by centrifugation. 30 μL of the cleared cell lysates were subjected to acetyl-CoA measurement using an acetyl-CoA assay kit (Sigma, MAK-039) following manufacturer's assay manual. Duplicate assay plates were used to count the number of cells per treatment for normalization in determining cellular acetyl-CoA levels.

MDA-MB-453 cells [2] = experiment: Glucose-to-lipid conversion (de novo lipid synthesis); details: 4 h, saturating dose (5 μM MTI-31, 1 μM rapamycin)
Experimental: as §1

MDA-MB-231 cells = experiment: as above; details: similar treatment, 4 h saturating dose
Experimental: as §1

Row | SMILES | reduction in acetyl-CoA (MDA-MB-453 cells [1]) [%] | suppression of de novo lipid synthesis (14C-glucose-to-lipid conversion rate) (MDA-MB-453 cells [2]) [%] | effect on de novo lipid synthesis (MDA-MB-231 cells)
1 | CO[C@H]1C[C@@H]2CC[C@@H](C)[C@@](O)(O2)C(=O)C(=O)N2CCCC[C@H]2C(=O)O[C@H]([C@H](C)C[C@@H]2CC[C@@H](O)[C@H](OC)C2)CC(=O)[C@H](C)/C=C(\C)[C@@H](O)[C@@H](OC)C(=O)[C@H](C)C[C@H](C)/C=C/C=C/C=C/1C [rapamycin] | 45 | 32 | did not significantly reduce lipid synthesis
2 | COc1ccc(-c2ccc3c(N4CCOC[C@@H]4C)nc(N4CCOC[C@@H]4C)nc3n2)cc1CO [AZD8055] |  | 63 | did not significantly reduce lipid synthesis
